# pKd: −log10 of the molar value. Where a SMILES comes first, the peptide text is derived from it. Bridges are numbered along the chain shown (N, C = ends). [ ]: non-standard residue; d: D form. The star is where a group is joined. hPhe(3-Cl-4-CF3) = N[C@@H](CCc1ccc(C(F)(F)F)c(Cl)c1)C(=O)O; NPrPhe(4-CF3) = CCCN[C@@H](Cc1ccc(C(F)(F)F)cc1)C(=O)O; NEtPhe(4-CF3) = CCN[C@@H](Cc1ccc(C(F)(F)F)cc1)C(=O)O; hPhe(3,4-Cl2) = N[C@@H](CCc1ccc(Cl)c(Cl)c1)C(=O)O; NMeGly(cPent) = CN[C@H](C(=O)O)C1CCCC1; Hyp = O=C(O)[C@@H]1C[C@@H](O)CN1; NMeD = CN[C@@H](CC(=O)O)C(=O)O; NMeL = CN[C@@H](CC(C)C)C(=O)O; Ac6c = NC1(C(=O)O)CCCCC1; Morpholide = C1CN(*)CCO1; NMeA = CN[C@@H](C)C(=O)O; Ac5c = NC1(C(=O)O)CCCC1; Aze = O=C(O)[C@@H]1CCN1; Ac3c = NC1(C(=O)O)CC1; Aib = CC(C)(N)C(=O)O; Sar = CNCC(=O)O
# Columns and labels:
# [1] = biological target: GDP-bound NRAS wild-type protein (Homo sapiens, UniProt P01111); test: Binding to NRAS by surface plasmon resonance (SPR), Single Cycle Kinetics; conditions: SPR, GDP-bound NRAS wild-type protein vs GDP-bound KRAS wild-type protein
# GDP-bound NRAS wild-type protein, sequence (P01111 whole entry): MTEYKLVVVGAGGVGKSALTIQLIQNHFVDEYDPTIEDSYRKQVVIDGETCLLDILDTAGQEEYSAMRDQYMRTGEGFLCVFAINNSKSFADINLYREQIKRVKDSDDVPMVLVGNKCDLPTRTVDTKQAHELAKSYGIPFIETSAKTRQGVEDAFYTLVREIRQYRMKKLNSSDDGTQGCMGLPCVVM
# [2] = biological target: GDP-bound HRAS wild-type protein (Homo sapiens, UniProt P01112); test: Binding to HRAS by surface plasmon resonance (SPR), Single Cycle Kinetics; conditions: SPR, GDP-bound HRAS wild-type protein vs GDP-bound KRAS wild-type protein
# GDP-bound HRAS wild-type protein, sequence (P01112 whole entry): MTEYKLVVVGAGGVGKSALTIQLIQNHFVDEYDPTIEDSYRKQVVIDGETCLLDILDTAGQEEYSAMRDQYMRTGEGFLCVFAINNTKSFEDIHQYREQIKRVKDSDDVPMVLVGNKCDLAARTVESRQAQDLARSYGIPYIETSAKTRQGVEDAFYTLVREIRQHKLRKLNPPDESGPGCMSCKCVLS
# [3] = biological target: GDP-bound KRAS wild-type protein (Homo sapiens, UniProt P01116); test: Binding to KRAS by surface plasmon resonance (SPR), Single Cycle Kinetics; conditions: SPR Single Cycle Kinetics, GDP-bound KRAS wild-type protein, 1:1 binding model; read-out: KRAS KD
# GDP-bound KRAS wild-type protein, sequence (P01116 whole entry): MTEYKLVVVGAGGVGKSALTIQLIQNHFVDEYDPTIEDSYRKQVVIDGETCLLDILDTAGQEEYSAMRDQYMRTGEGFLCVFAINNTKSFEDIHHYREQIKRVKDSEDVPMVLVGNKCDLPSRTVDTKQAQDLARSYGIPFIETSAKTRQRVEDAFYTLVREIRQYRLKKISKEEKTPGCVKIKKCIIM
Compound,NRAS/KRAS (ratio of KD value for NRAS to KD value for KRAS) [1],HRAS/KRAS (ratio of KD value for HRAS to KD value for KRAS) [2],pKd [3]
CC[C@H](C)[C@@H]1NC(=O)[C@H](CC(C)C)N(C)C(=O)C[C@@H](C(=O)N2CCOCC2)N(C)C(=O)[C@H](C2CCCC2)N(C)C(=O)C(C)(C)NC(=O)[C@@H]2CCCN2C(=O)[C@H](CCc2ccc(C(F)(F)F)c(Cl)c2)NC(=O)CN(C)C(=O)[C@H](Cc2ccc(C(F)(F)F)cc2)N(CC)C(=O)[C@@H]2CCN2C(=O)[C@H](C)N(C)C1=O [PP0221] ([NMeL]I[NMeA][Aze][NEtPhe(4-CF3)][Sar][hPhe(3-Cl-4-CF3)]P[Aib][NMeGly(cPent)][NMeD]-Morpholide; lactam N-11),C (A compound having a KD ratio of 0.1 or more and less than 3 is denoted as C),C (A compound having a KD ratio of 0.1 or more and less than 3 is denoted as C),9.72
CC[C@H](C)[C@@H]1NC(=O)[C@H](CC(C)C)N(C)C(=O)C[C@@H](C(=O)N2CCOCC2)N(C)C(=O)[C@H](C2CCCC2)N(C)C(=O)C2(CCCCC2)NC(=O)[C@@H]2CCCN2C(=O)[C@H](CCc2ccc(C(F)(F)F)c(Cl)c2)NC(=O)CN(C)C(=O)[C@H](Cc2ccc(C(F)(F)F)cc2)N(CC)C(=O)[C@@H]2CCN2C(=O)[C@H](C)N(C)C1=O [PP0222] ([NMeL]I[NMeA][Aze][NEtPhe(4-CF3)][Sar][hPhe(3-Cl-4-CF3)]P[Ac6c][NMeGly(cPent)][NMeD]-Morpholide; lactam N-11),C (A compound having a KD ratio of 0.1 or more and less than 3 is denoted as C),C (A compound having a KD ratio of 0.1 or more and less than 3 is denoted as C),9.24
"CC[C@H](C)[C@@H]1NC(=O)[C@H](CC(C)C)N(C)C(=O)C[C@@H](C(=O)N2CCOCC2)N(C)C(=O)[C@H](C2CCCC2)N(C)C(=O)C2(CCCC2)NC(=O)[C@@H]2CCCN2C(=O)[C@H](CCc2ccc(Cl)c(Cl)c2)NC(=O)CN(C)C(=O)[C@H](Cc2ccc(C(F)(F)F)cc2)N(CC)C(=O)[C@@H]2CCN2C(=O)[C@H](C)N(C)C1=O [PP0223] ([NMeL]I[NMeA][Aze][NEtPhe(4-CF3)][Sar][hPhe(3,4-Cl2)]P[Ac5c][NMeGly(cPent)][NMeD]-Morpholide; lactam N-11)",C (A compound having a KD ratio of 0.1 or more and less than 3 is denoted as C),C (A compound having a KD ratio of 0.1 or more and less than 3 is denoted as C),9.40
CCCN1C(=O)[C@@H]2CCN2C(=O)[C@H](C)N(C)C(=O)[C@H]([C@@H](C)CC)NC(=O)[C@H](CC(C)C)N(C)C(=O)C[C@@H](C(=O)N2CCOCC2)N(C)C(=O)[C@H](C2CCCC2)N(C)C(=O)C2(CC2)NC(=O)[C@@H]2CCCN2C(=O)[C@H](CCc2ccc(C(F)(F)F)c(Cl)c2)NC(=O)CN(C)C(=O)[C@@H]1Cc1ccc(C(F)(F)F)cc1 [PP0224] ([NMeL]I[NMeA][Aze][NPrPhe(4-CF3)][Sar][hPhe(3-Cl-4-CF3)]P[Ac3c][NMeGly(cPent)][NMeD]-Morpholide; lactam N-11),C (A compound having a KD ratio of 0.1 or more and less than 3 is denoted as C),B (a compound having 3 or more and less than 10 is denoted as B),9.66
CCCN1C(=O)[C@@H]2CCN2C(=O)[C@H](C)N(C)C(=O)[C@H]([C@@H](C)CC)NC(=O)[C@H](CC(C)C)N(C)C(=O)C[C@@H](C(=O)N2CCOCC2)N(C)C(=O)[C@H](C2CCCC2)N(C)C(=O)C(C)(C)NC(=O)[C@@H]2CCCN2C(=O)[C@H](CCc2ccc(C(F)(F)F)c(Cl)c2)NC(=O)CN(C)C(=O)[C@@H]1Cc1ccc(C(F)(F)F)cc1 [PP0225] ([NMeL]I[NMeA][Aze][NPrPhe(4-CF3)][Sar][hPhe(3-Cl-4-CF3)]P[Aib][NMeGly(cPent)][NMeD]-Morpholide; lactam N-11),C (A compound having a KD ratio of 0.1 or more and less than 3 is denoted as C),C (A compound having a KD ratio of 0.1 or more and less than 3 is denoted as C),9.64
CCCN1C(=O)[C@@H]2CCN2C(=O)[C@H](C)N(C)C(=O)[C@H]([C@@H](C)CC)NC(=O)[C@H](CC(C)C)N(C)C(=O)C[C@@H](C(=O)N2CCOCC2)N(C)C(=O)[C@H](C2CCCC2)N(C)C(=O)C2(CCCCC2)NC(=O)[C@@H]2CCCN2C(=O)[C@H](CCc2ccc(C(F)(F)F)c(Cl)c2)NC(=O)CN(C)C(=O)[C@@H]1Cc1ccc(C(F)(F)F)cc1 [PP0226] ([NMeL]I[NMeA][Aze][NPrPhe(4-CF3)][Sar][hPhe(3-Cl-4-CF3)]P[Ac6c][NMeGly(cPent)][NMeD]-Morpholide; lactam N-11),C (A compound having a KD ratio of 0.1 or more and less than 3 is denoted as C),B (a compound having 3 or more and less than 10 is denoted as B),9.33
"CCCN1C(=O)[C@@H]2CCN2C(=O)[C@H](C)N(C)C(=O)[C@H]([C@@H](C)CC)NC(=O)[C@H](CC(C)C)N(C)C(=O)C[C@@H](C(=O)N2CCOCC2)N(C)C(=O)[C@H](C2CCCC2)N(C)C(=O)C2(CCCC2)NC(=O)[C@@H]2CCCN2C(=O)[C@H](CCc2ccc(Cl)c(Cl)c2)NC(=O)CN(C)C(=O)[C@@H]1Cc1ccc(C(F)(F)F)cc1 [PP0227] ([NMeL]I[NMeA][Aze][NPrPhe(4-CF3)][Sar][hPhe(3,4-Cl2)]P[Ac5c][NMeGly(cPent)][NMeD]-Morpholide; lactam N-11)",C (A compound having a KD ratio of 0.1 or more and less than 3 is denoted as C),B (a compound having 3 or more and less than 10 is denoted as B),9.59
CCCN1C(=O)[C@@H]2CCN2C(=O)[C@H](C)N(C)C(=O)[C@H]([C@@H](C)CC)NC(=O)[C@H](CC(C)C)N(C)C(=O)C[C@@H](C(=O)N2CCOCC2)N(C)C(=O)[C@H](C2CCCC2)N(C)C(=O)C2(CCCC2)NC(=O)[C@@H]2C[C@@H](OCC)CN2C(=O)[C@H](CCc2ccc(C(F)(F)F)c(Cl)c2)NC(=O)CN(C)C(=O)[C@@H]1Cc1ccc(C(F)(F)F)cc1 [PP0228] ([NMeL]I[NMeA][Aze][NPrPhe(4-CF3)][Sar][hPhe(3-Cl-4-CF3)][Hyp](Et)[Ac5c][NMeGly(cPent)][NMeD]-Morpholide; lactam N-11),C (A compound having a KD ratio of 0.1 or more and less than 3 is denoted as C),B (a compound having 3 or more and less than 10 is denoted as B),10.43
CCCN1C(=O)CN(C)C(=O)CN(C)C(=O)[C@H]([C@@H](C)CC)NC(=O)[C@H](CC(C)C)N(C)C(=O)C[C@@H](C(=O)N2CCOCC2)N(C)C(=O)[C@H](C2CCCC2)N(C)C(=O)C2(CC2)NC(=O)[C@@H]2CCCN2C(=O)[C@H](CCc2ccc(C(F)(F)F)c(Cl)c2)NC(=O)CN(C)C(=O)[C@@H]1Cc1ccc(C(F)(F)F)cc1 [PP0229] ([NMeL]I[Sar][Sar][NPrPhe(4-CF3)][Sar][hPhe(3-Cl-4-CF3)]P[Ac3c][NMeGly(cPent)][NMeD]-Morpholide; lactam N-11),B (a compound having 3 or more and less than 10 is denoted as B),B (a compound having 3 or more and less than 10 is denoted as B),9.60
CCCN1C(=O)CN(C)C(=O)CN(C)C(=O)[C@H]([C@@H](C)CC)NC(=O)[C@H](CC(C)C)N(C)C(=O)C[C@@H](C(=O)N2CCOCC2)N(C)C(=O)[C@H](C2CCCC2)N(C)C(=O)C(C)(C)NC(=O)[C@@H]2CCCN2C(=O)[C@H](CCc2ccc(C(F)(F)F)c(Cl)c2)NC(=O)CN(C)C(=O)[C@@H]1Cc1ccc(C(F)(F)F)cc1 [PP0230] ([NMeL]I[Sar][Sar][NPrPhe(4-CF3)][Sar][hPhe(3-Cl-4-CF3)]P[Aib][NMeGly(cPent)][NMeD]-Morpholide; lactam N-11),B (a compound having 3 or more and less than 10 is denoted as B),C (A compound having a KD ratio of 0.1 or more and less than 3 is denoted as C),9.41
CCCN1C(=O)CN(C)C(=O)CN(C)C(=O)[C@H]([C@@H](C)CC)NC(=O)[C@H](CC(C)C)N(C)C(=O)C[C@@H](C(=O)N2CCOCC2)N(C)C(=O)[C@H](C2CCCC2)N(C)C(=O)C2(CCCCC2)NC(=O)[C@@H]2CCCN2C(=O)[C@H](CCc2ccc(C(F)(F)F)c(Cl)c2)NC(=O)CN(C)C(=O)[C@@H]1Cc1ccc(C(F)(F)F)cc1 [PP0231] ([NMeL]I[Sar][Sar][NPrPhe(4-CF3)][Sar][hPhe(3-Cl-4-CF3)]P[Ac6c][NMeGly(cPent)][NMeD]-Morpholide; lactam N-11),B (a compound having 3 or more and less than 10 is denoted as B),C (A compound having a KD ratio of 0.1 or more and less than 3 is denoted as C),9.26
"CCCN1C(=O)CN(C)C(=O)CN(C)C(=O)[C@H]([C@@H](C)CC)NC(=O)[C@H](CC(C)C)N(C)C(=O)C[C@@H](C(=O)N2CCOCC2)N(C)C(=O)[C@H](C2CCCC2)N(C)C(=O)C2(CCCC2)NC(=O)[C@@H]2CCCN2C(=O)[C@H](CCc2ccc(Cl)c(Cl)c2)NC(=O)CN(C)C(=O)[C@@H]1Cc1ccc(C(F)(F)F)cc1 [PP0232] ([NMeL]I[Sar][Sar][NPrPhe(4-CF3)][Sar][hPhe(3,4-Cl2)]P[Ac5c][NMeGly(cPent)][NMeD]-Morpholide; lactam N-11)",B (a compound having 3 or more and less than 10 is denoted as B),B (a compound having 3 or more and less than 10 is denoted as B),9.55

# From patent US20240158446A1, “CYCLIC COMPOUND HAVING SELECTIVE INHIBITORY ACTION ON KRAS OVER HRAS AND NRAS” (CHUGAI SEIYAKU KABUSHIKI KAISHA, priority 2021, published 2024)
